According to ChEMBL document CHEMBL3853280, “Unexpected Metabolic Versatility in a Combined Fungal Fomannoxin/Vibralactone Biosynthesis” (2016):
≈ marks a conversion by molar mass, not a printed value.

Assays:
Assay type in all cases: functional
[1] = Antifungal activity against Penicillium notatum by broth dilution assay; settings: Penicillium chrysogenum
Trichophyton benhamiae = assay: Antifungal activity against Arthroderma benhamiae by broth dilution assay
Aspergillus fumigatus = assay: Antifungal activity against Aspergillus fumigatus by broth dilution assay

Structure (SMILES)	MIC [1]	MIC (Trichophyton benhamiae)	MIC (Aspergillus fumigatus)
COC(=O)c1ccc(OC=C(C)C)cc1	25 µg/mL (≈ 121 µM)	100 µg/mL (≈ 485 µM)	> 100 µg/mL
CC(C)=CC[C@@]12C=C(CO)C[C@@H]1OC2=O	25 µg/mL (≈ 120 µM)	50 µg/mL (≈ 240 µM)	> 100 µg/mL
C=C(C)COc1ccc(C(=O)OC)cc1CO	25 µg/mL (≈ 106 µM)	25 µg/mL (≈ 106 µM)	> 100 µg/mL
C=C(C)COc1ccc(C(=O)OC)cc1C=O	25 µg/mL (≈ 107 µM)	6.25 µg/mL (≈ 26.7 µM)	50 µg/mL (≈ 213 µM)

More lines, in order of falling MIC [1], values ahead:

MIC [1]	MIC (Trichophyton benhamiae)	MIC (Aspergillus fumigatus)	Structure (SMILES)
25 µg/mL (≈ 106 µM)	6.25 µg/mL (≈ 26.5 µM)	50 µg/mL (≈ 212 µM)	COC(=O)c1ccc(OC=C(C)C)c(CO)c1
25 µg/mL (≈ 112 µM)	> 100 µg/mL	> 100 µg/mL	CC1=CC=C(CC2CCOC2=O)C(=O)OC1 (centres undefined)
25 µg/mL (≈ 99.9 µM)	50 µg/mL (≈ 200 µM)	> 100 µg/mL	CC(=O)OCC1=C[C@@]2(CC=C(C)C)C(=O)O[C@H]2C1
25 µg/mL (≈ 140 µM)	12.5 µg/mL (≈ 70.1 µM)	> 100 µg/mL	CC(C)=C/C=C/C=C1\CCOC1=O
